IC50 data for 41 molecules are collected here from patent US6413975B1, “Purine derivatives having phosphodiesterase iv inhibition activity” (Euro-Celtique, S.A., priority 1999, dated 2002).

Where a name gives a salt, the structure may show the parent alone.

For the first assay, the system named is Type IV PDE. Description: PDE IV inhibition: hydrolysis of [3H]-cyclic AMP by isolated Type IV PDE. The format is biochemical, bovine. The following applies: adenines, Table 4; cyclic AMP 0.2 μM; read-out: calc PDE IV IC50. The protocol:
The Type IV PDE is isolated from bovine tracheal smooth muscle using a procedure similar to that previously described by Silver, P. J., Hamel, L. T., Perrone, M. H. Bentley, R. G. Bushover, C. R., Evans, D. B.: Eur. J. Pharmacol. 150:85,1988.(1). Briefly, smooth muscle from bovine trachea is minced and homogenized using a polytron in 10 volumes of an extraction buffer containinhg 10 mM Tris-acetate (pH 7.5), 2 mM magnesium chloride, 1 mM dithiothreitol and 2,000 units/ml of aprotinin. This and all subsequent procedures are performed at 0-4° C. The homogenate is sonicated and then centrifiged at 48,000×g for 30 minutes. The resulting supernatant is applied to a DEAE Trisacryl M column previously equilibrated with sodium acetate and dithiothreitol. After applications of the sample, the column is washed with sodium acetate/dithiothreitol, after which the different forms of PDE are eluted from the column using a linear Tris-HCl/NaCl gradient. Fractions containing Type IV PDE are collected, dialyzed and concentrated to 14% of the original volume. The concentrated fractions are diluted to 50% with ethylene glycol and stored at -20° C.
Enzyme activity is assessed by measuring the hydrolysis of [^3H]-cyclic AMP, as described by Thompson, W. J., Teraski, W. L., Epstein, P. N., Strada, S. J.: Adv. Cyclic Nucleotide Res. 10:69, 1979. The cyclic AMP concentration used in this assay is 0.2 μM, which approximates the Km value. Protein concentration is adjusted to ensure that no more than 15% of the available substrate is hydrolyzed during the incubation period.
All test compounds are dissolved in dimethyl sulfoxide (final concentration of 2.5%). This concentration of dimethyl sulfoxide inhibits enzyme activity by approximately 10%.
As for `CCn1cnc(NCc2ccccc2)c2nc(C3CCCC3)nc1-2` [3-ethyl-8-cyclopentyl-6-benzylamino-3H-purine hydrochloride], the IC50 was 62.4 µM.

On to `CCNc1ncn(CC)c2nc(C3CCCC3)nc1-2` [3-ethyl-8-cyclopentyl-6-ethylamino-3H-purine hydrochloride], for which the IC50 was 28.3 µM.

Consider `CCn1cnc(NCc2ccccc2)c2nc(C(C)C)nc1-2` [3-ethyl-8-isopropyl-6-benzylamino-3H-purine hydrochloride], for which the IC50 was 28.9 µM.

In the case of `CCNc1ncn(CC)c2nc(C(C)C)nc1-2` [3-ethyl-8-isopropyl-6-ethylamino-3H-purine hydrochloride], the IC50 is 52.2 µM.

Take `CCCCCCn1cnc(NC)c2ncnc1-2` [3-hexyl-6-methylamino-3H-purine hydrochloride]: the IC50 is 34.1 µM.

Still in this assay, the particulars now being: adenines, Table 7; read-out: calc PDE IV IC50.
Turning to `CCNc1ncn(CCc2ccc(Cl)cc2)c2nc(C(C)C)nc1-2` [3-{2-(4-chlorophenyl)-ethyl]-6-ethylamino-8-isopropyl-3H-purine], the IC50 is 4.46 µM.

`COc1ccc(Cn2cnc(N)c3nc(C(C)(C)OCc4ccc(F)cc4)nc2-3)cc1OC` [6-Amino-3-(3,4-dimethoxybenzyl)-8-(1-(4-fluorobenzyloxy-1-methyl-ethyl)-3H-purine Hydrochloride]: the IC50 was 1.85 µM.

On to `C=C(C)c1nc2c(N)ncn(Cc3ccc(OC)c(OC)c3)c-2n1` [6-Amino-3-(3,4-dimethyoxybenzyl)-8-(1-methylethenyl)-3H-purine], for which the IC50 was 3.7 µM.

Regarding `C=C(C)c1nc2c(N)ncn(Cc3ccc(OC)c(OC4CCCC4)c3)c-2n1` [6-Amino-3-(3-cyclopentyloxy-4-methoxy-benzyl)-8-(1-methylethenyl)-3H-purine], the IC50 is 0.091 µM.

With `COc1ccc(Cn2cnc(N)c3ncnc2-3)cc1OC1CCCC1` [6-Amino-3-(3-cyclopentyloxy-4-methoxybenzyl)-3H-purine], the IC50 was 0.31 µM.

In the case of `COc1ccc(Cn2cnc(N)c3nc(C(C)(C)OCc4ccccc4)nc2-3)cc1OC` [6-Amino-8-(1-benzyloxy-1-methyl-ethyl)-3-(34-dimethoxybenzyl)-3H-purine Hydrochloride], the IC50 was 0.94 µM.

As to `CCNc1ncn(Cc2cc[n+]([O-])cc2)c2nc(C(C)C)nc1-2` [6-Ethylamino-3-(1-oxopyridin-4-yl-methyl)-8-isopropyl-3H-purine], the IC50 was 385 µM.

Consider `CCCCOc1cc(Cn2cnc(NCC)c3nc(C(C)C)nc2-3)ccc1OC` [6-Ethylamino-3-(3-butoxy-4-methoxy-benzyl)-8-isopropyl-3H purine], for which the IC50 is 1.4 µM.

Take `CCNc1ncn(Cc2ccc(OC)c(OCC3CCN(C)CC3)c2)c2nc(C(C)C)nc1-2` [6-Ethylamino-3-[3-(1-methylpiperidin-4-yl-methoxy)-4-methoxy-benzy]-8-isopropyl-3H-purine]: the IC50 was 6.6 µM.

Consider `CCNc1ncn(Cc2ccc(OC)c(OC3CN4CCC3CC4)c2)c2nc(C(C)C)nc1-2` (centres unmarked) [6-Ethylamino-3-[3-(2,2,2)-azabicyclooctan-3-yloxy)-4-methoxy]-8-isopropyl-3H-purine], for which the IC50 is 2.05 µM.

In the case of `CCNc1ncn(Cc2ccc(OC)c(OCCN(C)C)c2)c2nc(C(C)C)nc1-2` [6-Ethylamino-3-[3-(2,2-dimethylaminoethoxy-4-methoxy)]-8-isopropyl-3H-purine], the IC50 is 8.95 µM.

Consider `CCNc1ncn(Cc2ccc(OC)c(OC3CCC(O)C3)c2)c2nc(C(C)(C)O)nc1-2` (centres unmarked) [6-Ethylamino-3-[3-(3-hydroxycyclopentyloxy)-4-methoxybenzyl)]-8-(1-hydroxy-1-methylethyl)-3H-purine], for which the IC50 is 2.6 µM.

Take `CCNc1ncn(Cc2ccc(OC)c(OCC3CCCC3)c2)c2nc(C(C)C)nc1-2` [6-Ethylamino-3-[3-cyclopentylmethoxy-4-methoxy-benzyl]-8-isopropyl-3H-purine]: the IC50 is 12.5 µM.

In the case of `CCNc1ncn(Cc2ccc(OC)c(OCc3cc[n+]([O-])cc3)c2)c2nc(C(C)C)nc1-2` [6-Ethylamino-3-[(3-pyridin-4-yl-methoxy)N-oxide-4-methoxy]-8-isopropyl-3H-purine], the IC50 is 4.5 µM.

As for `CCNc1ncn(Cc2ccc(OC)c(O[C@@H]3C[C@H]4CC[C@@H](C3)N4C)c2)c2nc(C(C)C)nc1-2` [6-Ethylamino-3-[(exo-8-methyl-8-azabicyclo(3,2,1)-octan-3-yl-oxy)-4-methoxy-benzy]-8-isopropyl-3-H-purine], the IC50 was 6.02 µM.

Turning to `CCNc1ncn(Cc2ccc(OC)c(OCc3ccncc3)c2)c2nc(C(C)C)nc1-2` [6-Ethylamino-8-isopropyl-3-[3-(pyridin-4-yl-methoxy)-4-methoxy-benzyl]-3H-purine], the IC50 was 24.5 µM.

On to `CC(C)c1nc2c(N)ncn(Cc3ccc4c(c3)OCO4)c-2n1` [6-amino-3(3,4-methylenedioxybenzyl)-8-isopropyl-3H-purine], for which the IC50 is 4.1 µM.

On to `COc1ccc(Cn2cnc(N)c3nc(C(C)C)nc2-3)cc1OC` [6-amino-3-(3,4-dimethoxybenzyl)-8-isopropyl-3H-purine], for which the IC50 is 0.92 µM.

With `CC(C)(OCc1ccc(F)cc1)c1nc2c(N)ncn(Cc3ccc4c(c3)OCO4)c-2n1` [6-amino-3-(3,4-methylenedioxybenzyl)-8-[1-(4-fluorobenzyloxy)-1-methyl-ethyl]-3H-purine], the IC50 was 0.72 µM.

In the case of `COc1ccc(Cn2cnc(N)c3nc(C(C)C)nc2-3)cc1O` [6-amino-3-(3-hydroxy-4-methoxy)-benzyl)-8-isopropyl-3H-purine], the IC50 is 15.1 µM.

Regarding `CC(C)c1nc2c(N)ncn(Cc3ccc(Cl)cc3)c-2n1` [6-amino-3-(4-chlorobenzyl)-8-isopropyl-3H-purine], the IC50 is 20.8 µM.

On to `COc1ccc(Cn2cnc(N)c3nc(C(C)C)nc2-3)cc1OCc1ccccc1` [6-amino-3-((3-benzyloxy-4-methoxy)-bezyl)-8-isopropyl-3H-purine], for which the IC50 was 6.4 µM.

Regarding `COc1ccc(Cn2cnc(N)c3nc(C(C)(C)O)nc2-3)cc1OCCCCO` [6-amino-3-[3-(4-hydroxybutoxy-4-methoxy)benzyl]-8-(1-hydroxy-1-methylethyl)-3H-purine hydrochloride], the IC50 was 17.1 µM.

Turning to `COc1ccc(Cn2cnc(N)c3nc(C(C)(C)OCc4ccccc4)nc2-3)cc1OCc1ccccc1` [6-amino-3-[(3-benzyloxy-4-methoxy)benzyl]-8-[(1-benzyloxy-1-methyl)ethyl]-3H-purine], the IC50 is 3.12 µM.

As to `COc1ccc(Cn2cnc(N)c3nc(C(C)(C)O)nc2-3)cc1OC1CCCC1` [6-amino-3-[(3-cyclopentyloxy-4-methoxy)benzyl]-8-[(1-hydroxy-1-methyl)ethyl]-3H-purine], the IC50 is 0.25 µM.

For the molecule `CC(C)c1nc2c(N)ncn(CC3CCCC3)c-2n1` [6-amino-3-cyclopentylmethyl-8-isopropyl-3H-purine], the IC50 is 23.2 µM.

On to `COc1ccc(Cn2cnc(N)c3nc(C(C)C)nc2-3)cc1OCCCCO` [6-amino-8-isopropyl-3-[(4-methoxy-3-([(4-hydroxybutoxy))benzyl]-3H-purine], for which the IC50 is 4.2 µM.

Still in this assay, the particulars now being: dithioxanthines, Table 5; read-out: IC50 PDE IV.
With `CCn1c(=S)[nH]c(=S)c2[nH]c(C(C)C)nc21` [3-ethyl-3,7-dihydro-8-isopropyl-2,6-dithio-1H-purine-2,6-dione], the IC50 worked out at 4.1 µM.

Still in this assay, the particulars now being: read-out: PDE IV I50.
As for `CCCn1cnc(NC2CCCC2)c2nc(C3CC3)nc1-2` [6-Cyclopentylamino-8-cyclopropyl-3-propyl-3H-purine Hydrochloride], the IC50 was found to be 0.03 µM.

As for `CCCn1c(=S)nc(NC2CCCC2)c2[nH]c(C3CC3)nc21` [6-cyclopentylamino-8-cyclopropyl-3,7-dihydro-3-propyl-2-thio-2H-purin-2-one hydrochloride], the IC50 amounted to 7.41 µM.

The same assay, now with this note: thioisoguanines, Table 2; cyclic AMP 0.2 μM; read-out: Calc IC50 PDE IV.
With `CCn1c(=S)nc(NC2CCCC2)c2[nH]c(C(C)C)nc21` [3-ethyl-6-cyclopentylamino-3,7-dihydro-8-isopropyl-2-thio-2H-purin-2-one], the IC50 is 9.4 µM.

Turning to `CCn1c(=S)nc(NC2CCCC2)c2[nH]c(C3CC3)nc21` [3-ethyl-6-cyclopentylamino-8-cyclopropyl-3,7-dihydro-2-thio-2H-purin-2-one], the IC50 was 0.19 µM.

On to `CCCn1c(=S)nc(N)c2[nH]c(C3CC3)nc21` [6-amino-8-cyclopropyl-3,7-dihydro-3 propyl-2-thio-2H-purin-2-one], for which the IC50 was 39.4 µM.

For `CCCn1c(=S)nc(NCc2ccccc2)c2[nH]c(C3CC3)nc21` [6-benzylamino-8-(cyclopropyl)-3,7-dihydro-3-propyl-2-thio-2H-purin-2-one hydrochloride], the IC50 is 33.6 µM.

Turning to `CCCCNc1nc(=S)n(CCC)c2nc(C3CC3)[nH]c12` [6-butylamino-8-cyclopropyl-3,7-dihydro-3-propyl-2-thio-2H-purin-2-one], the IC50 is 24.5 µM.

`CCCn1c(=S)nc(NC2CCCC2)c2[nH]c(C(C)C)nc21` [6-cyclopentylamino-3,7-dihydro-8-isopropyl-3-propyl-2-thio-2H-purin-2-one]: the IC50 is 45.1 µM.
